The record followed here is publication PMC4388811, “Co-Solvents as Stabilizing Agents during Heterologous Overexpression in Escherichia coli – Application to Chlamydial Penicillin-Binding Protein 6” (PLoS ONE, 2015).

The experiment has as its target T1, PBP6Cp (Chlamydia pneumoniae, UniProt A0A0F7X2J0).
T1 construct: native N-terminal signal peptide and C-terminal transmembrane domain removed; OmpA leader (cleaved by E. coli signal peptidase I); C-terminal Strep tag kept; periplasmic expression in E. coli C43(DE3) with betaine
Kind of experiment: TLC of lipid II DD-carboxypeptidase reaction. The conditions noted are these: lipid II substrate; 50 mM MES pH 5.5, 2 mM MgCl2, 20% DMSO, 37 C, 4 h; inhibitor concentration not given; active-site serine acylation (covalent) described as general beta-lactam mechanism. In kind it is biochemical.

Turning to `CC1(C)S[C@@H]2[C@H](NC(=O)Cc3ccccc3)C(=O)N2[C@H]1C(=O)O` [penicillin G], the “TLC of lipid II DD-carboxypeptidase reaction” value is “DD-carboxypeptidase activity of wild type PBP6Cp was stalled in the presence of penicillin G”.
